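Method: 48-hour compound exposure of cells in 96-well plates, five concentrations, linear interpolation of endpoints. Here, GI50 denotes the concentration required for 50% inhibition of growth. TGI: total growth inhibition.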
Key:
Test in all cases: NCI tumour cell line growth inhibition, 48 h
SNB-75 CNS = test system: SNB-75 CNS
MCF7 breast = test system: MCF7 breast
HCT-116 colon = test system: HCT-116 colon
UO-31 renal = test system: UO-31 renal
M14 melanoma = test system: M14 melanoma
BT-549 breast = test system: BT-549 breast
EKVX NSCLC = test system: EKVX NSCLC
RXF 393 renal = test system: RXF 393 renal
KM12 colon = test system: KM12 colon
A498 renal = test system: A498 renal

N#Cc1ccc2c(-c3ccnc(NC4CC4)n3)c(-c3ccc(F)cc3)nn2c1
GI50 (SNB-75 CNS): > 17.2 µM
TGI (SNB-75 CNS): > 25 µM
GI50 (MCF7 breast): > 25 µM
TGI (MCF7 breast): > 25 µM
GI50 (HCT-116 colon): > 25 µM
TGI (HCT-116 colon): > 25 µM
GI50 (UO-31 renal): 6.78 µM
TGI (UO-31 renal): > 25 µM
GI50 (M14 melanoma): > 25 µM
TGI (M14 melanoma): > 25 µM
GI50 (BT-549 breast): > 25 µM
TGI (BT-549 breast): > 25 µM
GI50 (EKVX NSCLC): > 25 µM
TGI (EKVX NSCLC): > 25 µM
GI50 (RXF 393 renal): > 25 µM
TGI (RXF 393 renal): > 25 µM
GI50 (KM12 colon): > 25 µM
TGI (KM12 colon): > 25 µM
GI50 (A498 renal): > 25 µM
TGI (A498 renal): > 25 µM

NS(=O)(=O)c1cccc(Nc2cc(-c3ccc(F)cc3)[nH]n2)c1
GI50 (SNB-75 CNS): > 15.5 µM
TGI (SNB-75 CNS): > 25 µM
GI50 (MCF7 breast): 20.4 µM
TGI (MCF7 breast): > 25 µM
GI50 (HCT-116 colon): 11.9 µM
TGI (HCT-116 colon): > 25 µM
GI50 (UO-31 renal): 14.6 µM
TGI (UO-31 renal): > 25 µM
GI50 (M14 melanoma): > 25 µM
TGI (M14 melanoma): > 25 µM
GI50 (BT-549 breast): > 23.9 µM
TGI (BT-549 breast): > 25 µM
GI50 (EKVX NSCLC): > 25 µM
TGI (EKVX NSCLC): > 25 µM
GI50 (RXF 393 renal): 17.8 µM
TGI (RXF 393 renal): > 25 µM
GI50 (KM12 colon): 8.22 µM
TGI (KM12 colon): > 25 µM
GI50 (A498 renal): 18.4 µM
TGI (A498 renal): > 25 µM

O=C1c2ccccc2-c2cn(Cc3ccccc3)c3cccc(c23)C1c1cccnc1 (centres undefined)
GI50 (SNB-75 CNS): 1.38 µM
TGI (SNB-75 CNS): 26 µM
GI50 (MCF7 breast): 1.64 µM
TGI (MCF7 breast): > 50 µM
GI50 (HCT-116 colon): 1.99 µM
TGI (HCT-116 colon): > 50 µM
GI50 (UO-31 renal): 5.2 µM
TGI (UO-31 renal): > 50 µM
GI50 (M14 melanoma): 3.89 µM
TGI (M14 melanoma): > 50 µM
GI50 (BT-549 breast): 6.62 µM
TGI (BT-549 breast): > 50 µM
GI50 (EKVX NSCLC): 9.61 µM
TGI (EKVX NSCLC): > 50 µM
GI50 (RXF 393 renal): 8.1 µM
TGI (RXF 393 renal): > 50 µM
GI50 (KM12 colon): 2.27 µM
TGI (KM12 colon): > 50 µM
GI50 (A498 renal): 1.34 µM
TGI (A498 renal): 29.9 µM

COC(=O)c1sc(-n2cnc3cc(OC)c(OC)cc32)cc1OCc1ccccc1C(F)(F)F
GI50 (SNB-75 CNS): 9.07 µM
TGI (SNB-75 CNS): > 19.6 µM
GI50 (MCF7 breast): > 25 µM
TGI (MCF7 breast): > 25 µM
GI50 (HCT-116 colon): > 21.8 µM
TGI (HCT-116 colon): > 25 µM
GI50 (UO-31 renal): > 25 µM
TGI (UO-31 renal): > 25 µM
GI50 (M14 melanoma): > 25 µM
TGI (M14 melanoma): > 25 µM
GI50 (BT-549 breast): > 25 µM
TGI (BT-549 breast): > 25 µM
GI50 (EKVX NSCLC): > 25 µM
TGI (EKVX NSCLC): > 25 µM
GI50 (RXF 393 renal): 7.45 µM
TGI (RXF 393 renal): > 25 µM
GI50 (KM12 colon): > 25 µM
TGI (KM12 colon): > 25 µM
GI50 (A498 renal): 0.513 µM
TGI (A498 renal): > 25 µM

COc1ccc2c(Cl)cc(NC(=S)Nc3ccccc3)nc2c1
TGI (SNB-75 CNS): 52.1 µM
TGI (MCF7 breast): > 100 µM
TGI (HCT-116 colon): 49.1 µM
TGI (M14 melanoma): 36.6 µM
TGI (BT-549 breast): > 100 µM
TGI (EKVX NSCLC): 63.1 µM
TGI (RXF 393 renal): 55.6 µM
TGI (KM12 colon): 37.9 µM
TGI (A498 renal): 48.1 µM

COc1oc(C2C/C(=C/C(C)=C/C(C)=C/C(C)=C/c3ccc([N+](=O)[O-])cc3)CO2)c(C)c(=O)c1C (centres undefined)
TGI (SNB-75 CNS): > 57.5 µM
TGI (MCF7 breast): 19 µM
TGI (HCT-116 colon): 18.2 µM
TGI (UO-31 renal): 27.5 µM
TGI (M14 melanoma): > 100 µM
TGI (BT-549 breast): 17.4 µM
TGI (EKVX NSCLC): 82.6 µM
TGI (RXF 393 renal): 95.1 µM
TGI (KM12 colon): > 48.2 µM
TGI (A498 renal): 47.4 µM

C=C(CN1CCN(c2cc(C(F)(F)F)cc(C(F)(F)F)c2)CC1)c1ccc(C(=O)Nc2ccccc2N)cc1
GI50 (SNB-75 CNS): 3.44 µM
TGI (SNB-75 CNS): 18.5 µM
GI50 (MCF7 breast): 0.839 µM
TGI (MCF7 breast): 21.8 µM
GI50 (HCT-116 colon): 3.67 µM
TGI (HCT-116 colon): > 100 µM
GI50 (UO-31 renal): 5.57 µM
TGI (UO-31 renal): > 100 µM
GI50 (M14 melanoma): 3.76 µM
TGI (M14 melanoma): > 100 µM
GI50 (BT-549 breast): 5.04 µM
TGI (BT-549 breast): 24.6 µM
GI50 (EKVX NSCLC): 11.7 µM
TGI (EKVX NSCLC): 58.6 µM
GI50 (RXF 393 renal): 2.02 µM
TGI (RXF 393 renal): 7.71 µM
GI50 (KM12 colon): 3.47 µM
TGI (KM12 colon): 21.8 µM
GI50 (A498 renal): 2.04 µM
TGI (A498 renal): 14.4 µM

Oc1ccccc1/C=N\NC(=S)Nc1ccc(F)cc1
GI50 (SNB-75 CNS): 1.66 µM
TGI (SNB-75 CNS): 14.9 µM
GI50 (MCF7 breast): 0.888 µM
TGI (MCF7 breast): > 100 µM
GI50 (HCT-116 colon): 0.403 µM
TGI (HCT-116 colon): > 100 µM
GI50 (UO-31 renal): 0.472 µM
TGI (UO-31 renal): 4.97 µM
GI50 (M14 melanoma): 1.01 µM
TGI (M14 melanoma): 3.57 µM
GI50 (BT-549 breast): 2.35 µM
TGI (BT-549 breast): > 89.9 µM
GI50 (EKVX NSCLC): 3.91 µM
TGI (EKVX NSCLC): > 50.4 µM
GI50 (RXF 393 renal): 2.63 µM
TGI (RXF 393 renal): 65.8 µM
GI50 (KM12 colon): 0.799 µM
TGI (KM12 colon): 45 µM
GI50 (A498 renal): 4.65 µM
TGI (A498 renal): 49.3 µM

COc1cc(C(=O)/C=C/c2c[nH]c3ccccc23)cc(OC)c1OC
GI50 (SNB-75 CNS): 0.0264 µM
TGI (SNB-75 CNS): 37.2 µM
GI50 (MCF7 breast): 0.0857 µM
TGI (MCF7 breast): 15 µM
GI50 (HCT-116 colon): < 0.0175 µM
TGI (HCT-116 colon): 16.9 µM
GI50 (UO-31 renal): 0.0396 µM
TGI (UO-31 renal): 11.4 µM
GI50 (M14 melanoma): < 0.0155 µM
TGI (M14 melanoma): 39.4 µM
GI50 (BT-549 breast): 0.0288 µM
TGI (BT-549 breast): 4.16 µM
GI50 (EKVX NSCLC): 0.0605 µM
TGI (EKVX NSCLC): > 100 µM
GI50 (RXF 393 renal): 0.0238 µM
TGI (RXF 393 renal): 34.7 µM
GI50 (KM12 colon): 0.0217 µM
TGI (KM12 colon): 11.2 µM
GI50 (A498 renal): < 0.0119 µM
TGI (A498 renal): 0.0414 µM

CCOC(=O)c1c(CN2CCCCC2)nc2ccc(Cl)cc2c1-c1ccccc1
GI50 (SNB-75 CNS): 47.7 µM
TGI (SNB-75 CNS): > 100 µM
GI50 (MCF7 breast): 18.6 µM
TGI (MCF7 breast): 41.2 µM
GI50 (HCT-116 colon): 15.6 µM
TGI (HCT-116 colon): 37 µM
GI50 (UO-31 renal): 20.6 µM
TGI (UO-31 renal): 53.9 µM
GI50 (M14 melanoma): 24.6 µM
TGI (M14 melanoma): 72.7 µM
GI50 (BT-549 breast): 39.5 µM
TGI (BT-549 breast): > 100 µM
GI50 (EKVX NSCLC): 25.2 µM
TGI (EKVX NSCLC): 69.2 µM
GI50 (RXF 393 renal): 21.4 µM
TGI (RXF 393 renal): 50 µM
GI50 (KM12 colon): 27.4 µM
TGI (KM12 colon): 78.3 µM
GI50 (A498 renal): 18.3 µM
TGI (A498 renal): 37.7 µM

COc1cc(/C=N/NC(=O)c2cnn3c2NC(c2ccccc2)C3)ccc1OCc1ccccc1 (centres undefined)
GI50 (SNB-75 CNS): 0.595 µM
TGI (SNB-75 CNS): 2.24 µM
GI50 (MCF7 breast): 0.365 µM
TGI (MCF7 breast): 14.6 µM
GI50 (HCT-116 colon): 1.18 µM
TGI (HCT-116 colon): 11.7 µM
GI50 (UO-31 renal): 1.28 µM
TGI (UO-31 renal): 8.87 µM
GI50 (M14 melanoma): 0.695 µM
TGI (M14 melanoma): 4.45 µM
GI50 (BT-549 breast): 0.571 µM
TGI (BT-549 breast): 4.85 µM
GI50 (EKVX NSCLC): 1.48 µM
TGI (EKVX NSCLC): 12.4 µM
GI50 (RXF 393 renal): 1.29 µM
TGI (RXF 393 renal): 3.96 µM
GI50 (KM12 colon): 0.412 µM
TGI (KM12 colon): 2.35 µM
GI50 (A498 renal): 0.226 µM
TGI (A498 renal): 2.5 µM

CN(N=O)c1ccc(/C=C/c2ccnc3ccccc23)cc1
TGI (SNB-75 CNS): > 100 µM
TGI (MCF7 breast): > 100 µM
TGI (HCT-116 colon): > 100 µM
TGI (UO-31 renal): > 100 µM
TGI (M14 melanoma): > 100 µM
TGI (BT-549 breast): > 100 µM
TGI (EKVX NSCLC): > 100 µM
TGI (RXF 393 renal): > 100 µM
TGI (KM12 colon): > 100 µM
TGI (A498 renal): > 100 µM

Cc1ccc(C)c(N2CCN(c3ccncc3N)CC2)c1
GI50 (SNB-75 CNS): 16.6 µM
TGI (SNB-75 CNS): 59 µM
GI50 (MCF7 breast): 10.3 µM
TGI (MCF7 breast): 29.6 µM
GI50 (HCT-116 colon): 11.9 µM
TGI (HCT-116 colon): > 100 µM
GI50 (UO-31 renal): 17.2 µM
TGI (UO-31 renal): 96.3 µM
GI50 (M14 melanoma): 23 µM
TGI (M14 melanoma): 62.1 µM
GI50 (BT-549 breast): 21.9 µM
TGI (BT-549 breast): > 100 µM
GI50 (EKVX NSCLC): 10.8 µM
TGI (EKVX NSCLC): 84.8 µM
GI50 (RXF 393 renal): 9.31 µM
TGI (RXF 393 renal): 36.4 µM
GI50 (KM12 colon): 15.1 µM
TGI (KM12 colon): 47.1 µM
GI50 (A498 renal): 3.65 µM
TGI (A498 renal): 25.9 µM

From PubChem BioAssay (NCI)
